# Measured values: paper PMC8008425, “Shedding X-ray Light on the Role of Magnesium in the Activity of Mycobacterium tuberculosis Salicylate Synthase (MbtI) for Drug Design” (Journal of Medicinal Chemistry, 2020)
# Where “and” joins values, the source holds several entries; their conditions need not be identical. Identical values can stand only once. Like-named read-outs stand apart in the source and are kept apart here.
# Columns and labels:
# [1] = biological target: T1, recombinant MbtI (Mycobacterium tuberculosis, UniProt P9WFX1); assay: MbtI enzymatic (fluorimetric) inhibition assay; assay type: biochemical; settings: for remaining activity at 100 µM: residual enzymatic activity at 100 μM ligand concentration, 50 μM chorismic acid
# [2] = in vitro; settings: human
# [3] = test system: M. bovis BCG; assay type: cell-based, Mycobacterium bovis; settings: M. bovis BCG cultures grown at different concentrations of compound, chelated Sauton's medium
# [4] = test system: M. bovis BCG; assay: microbe, parasite or virus in culture; assay type: cell-based; settings: Mycobacterium tuberculosis variant bovis BCG
# [5] = test system: M. tuberculosis H37Rv; assay: MIC99 determination on Middlebrook 7H11 agar solid medium; assay type: cell-based; settings: Mycobacterium tuberculosis
# [6] = test system: M. tuberculosis H37Rv; design: method as in PMID 29940465, PMID 30889995; settings: Mtb cultures; cited from earlier work
# [7] = biological target: T1, recombinant MbtI; settings: cited from earlier work
# [8] = standard assay, 5 mM MgCl2, read-out: IC50
# T1 sequence (P9WFX1 whole entry): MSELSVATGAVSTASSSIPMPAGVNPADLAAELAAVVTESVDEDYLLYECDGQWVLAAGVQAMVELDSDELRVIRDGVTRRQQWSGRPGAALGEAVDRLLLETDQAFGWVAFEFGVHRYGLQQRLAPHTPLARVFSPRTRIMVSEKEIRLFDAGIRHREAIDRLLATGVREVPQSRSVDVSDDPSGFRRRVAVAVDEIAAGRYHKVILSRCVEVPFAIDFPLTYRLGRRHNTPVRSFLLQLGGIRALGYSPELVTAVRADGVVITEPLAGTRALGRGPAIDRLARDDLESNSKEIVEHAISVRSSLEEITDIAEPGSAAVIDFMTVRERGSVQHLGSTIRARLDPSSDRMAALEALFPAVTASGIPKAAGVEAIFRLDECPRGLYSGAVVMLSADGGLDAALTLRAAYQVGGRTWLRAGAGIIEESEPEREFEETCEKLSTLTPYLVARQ
compound,measurement,setting,value
O=C(O)c1ccc(-c2cccc(C(F)(F)F)c2)o1 [Compound 1],remaining activity at 100 µM,[1]; 5 mM MgCl2,42 ± 6.3%
"O=C(O)c1ccc(-c2cccc(Cl)c2)o1 [Compound 2, 5-(3-Chlorophenyl)furan-2-carboxylic Acid]",remaining activity at 100 µM,[1]; 5 mM MgCl2,102 ± 17.8%
same,melting point,,187 °C (dec.)
"O=C(O)c1ccc(-c2cccc(O)c2)o1 [Compound 3, 5-(3-Hydroxyphenyl)furan-2-carboxylic Acid]",remaining activity at 100 µM,[1]; 5 mM MgCl2,70.4 ± 21.8%
same,melting point,,170 °C
"Cc1cccc(-c2ccc(C(=O)O)o2)c1 [Compound 4, 5-(m-Tolyl)furan-2-carboxylic Acid]",remaining activity at 100 µM,[1]; 5 mM MgCl2,104 ± 4.8%
same,melting point,,147 °C
"Nc1cccc(-c2ccc(C(=O)O)o2)c1 [Compound 5, 5-(3-Aminophenyl)furan-2-carboxylic Acid]",remaining activity at 100 µM,[1]; 5 mM MgCl2,65.8 ± 9.6%
same,melting point,,225 °C (dec.)
"NC(=O)c1cccc(-c2ccc(C(=O)O)o2)c1 [Compound 6, 5-(3-Carbamoylphenyl)furan-2-carboxylic Acid]",remaining activity at 100 µM,[1]; 5 mM MgCl2,20.9 ± 4.3%
same,IC50,[1]; [8],31 µM and 31.4 µM
"CNC(=O)c1cccc(-c2ccc(C(=O)O)o2)c1 [Compound 7, 5-(3-(Methylcarbamoyl)phenyl)furan-2-carboxylic Acid]",remaining activity at 100 µM,[1]; 5 mM MgCl2,84 ± 9.1%
same,melting point,,159 °C
"NS(=O)(=O)c1cccc(-c2ccc(C(=O)O)o2)c1 [Compound 8, 5-(3-Sulfamoylphenyl)furan-2-carboxylic Acid]",remaining activity at 100 µM,[1]; 5 mM MgCl2,28.6 ± 6.8%
"O=C(O)c1cccc(-c2ccc(C(=O)O)o2)c1 [Compound 9, 5-(3-Carboxyphenyl)furan-2-carboxylic Acid]",remaining activity at 100 µM,[1]; 5 mM MgCl2,27.2 ± 4.5%
"N#Cc1cccc(-c2ccc(C(=O)O)o2)c1 [Compound 10, 5-(3-Cyanophenyl)furan-2-carboxylic Acid]",IC50,[2],> 100 µM
same,IC50,"[1]; 0.1 mg/mL BSA, PAINS control, read-out: IC50 in the presence of BSA",6.1 ± 0.9 µM
same,IC50,"[1]; 1 mM MgCl2, Figure 5B, x-axis [10] (μM), read-out: IC50 at 1 mM MgCl2",9.8 ± 1.3 µM
same,IC50,"[1]; 5 mM MgCl2, Figure 5B, x-axis [10] (μM), read-out: IC50 at 5 mM MgCl2",11.4 ± 2 µM
same,IC50,"[1]; 0.01% (v/v) Triton X-100, PAINS control, read-out: IC50 in the presence of Triton X-100",5.8 ± 1.2 µM
same,IC50,"[1]; 25 mM MgCl2, Figure 5B, x-axis [10] (μM), read-out: IC50 at 25 mM MgCl2",14.2 ± 1.1 µM
same,IC50,"[1]; 100 mM DTT, PAINS control, read-out: IC50 in the presence of DTT",7.2 ± 1.1 µM
same,IC50,"[1]; IC50, standard assay, 5 mM MgCl2",6.3 ± 0.9 µM
same,remaining activity at 100 µM,[1]; 5 mM MgCl2,3.1 ± 1%
same,IC50,[1]; [8],~6 µM
same,mode of inhibition (kinetic analysis),[1]; steady-state kinetics toward chorismic acid,competitive inhibitor
same,Ki,"[1]; steady-state kinetics toward chorismic acid, competitive inhibition",4.2 µM and 4 µM
same,siderophore concentration (Universal CAS assay and quantification of mycobactins),[3],siderophore concentration decreased at higher concentrations of the compound
same,MIC99,[4],250 µM
same,MIC99,[5],250 µM
"N#Cc1cccc(-c2ccc(C(N)=O)o2)c1 [Compound 11, 5-(3-Cyanophenyl)furan-2-carboxamide]",IC50,[1]; [8],17.3 ± 1.9 µM
same,melting point,,202 °C
O=C(O)c1ccc(-c2ccc(C(F)(F)F)cc2C(F)(F)F)o1 [II],MIC99,[6],250 µM
O=C(O)c1ccc(-c2ccc([N+](=O)[O-])cc2)o1 [I],MIC99,[6],156 µM
same,IC50,[7]; previous leads,7.6 ± 1.6 µM
"O=C(O)c1ccc(-c2cccc([N+](=O)[O-])c2)o1 [NO2, 5-(3-nitrophenyl)furan-2-carboxylic acid]",inhibitory activity,[7]; at a concentration of 100 μM,~50%
